Reference: PMC9732672, “Pyrazolyl-s-triazine with indole motif as a novel of epidermal growth factor receptor/cyclin-dependent kinase 2 dual inhibitors” (Frontiers in Chemistry, 2022)

Legend:
[1] = system: MCF-7 (breast cancer) cells; test: MTT cytotoxicity assay, MCF-7; assay type: cell-based, human; details: Homo sapiens, MCF7, average ±SD of four independent experiments, read-out: IC50 ± STDEV, MCF-7
Protocol: (§1) The parental MCF7 (breast cancer cell line), A549 (non-small cell lung cancer cell line), and human dermal fibroblast (HDF) (human dermal cell line) cells were obtained from the American Type Culture Collection (ATCC, Manassas, VA, United States). MCF7 and A549 cells were cultured in RPMI 1640 medium (EuroClone, Italy) supplemented with 10% (v/v) heat-inactivated fetal bovine serum (FBS) (EuroClone, Italy), 1% penicillin-streptomycin (EuroClone, Italy), and 2 mM L-glutamine.
(§2) The cytotoxic activity of the tested compounds were tested using MTT assay. […] Then, the cell viability was recored and IC50 values were calcualted. ([Mosmann, 1983]; [Nafie et al., 2020c]).

CDK-2 = CDK-2 (Homo sapiens, UniProt P24941); test: CDK-2 enzyme inhibition; assay type: biochemical
A549 cells = test: Flow cytometry, Annexin V/PI staining; assay type: cell-based, human; details: A549, IC50 value, 48 h
Protocol: A549 cells were seeded into 6-well culture plates (3-5× 10^5 cells/well) and incubated overnight. […] Next, media supernatants and cells were collected and rinsed with ice-cold PBS. The cells were then suspended in the flow cytometry solutions and cells were stained with Annexin V/PI, and data was acquired using a Cytoflex FACS machine. Data were analyzed using cytExpert software. ([Hisham et al., 2019]; [Khodair et al., 2019]; [Nafie et al., 2020b]).

EGFR = biological target: T1, EGFR (Homo sapiens, UniProt P00533); test: EGFR-TK kinase assay (ADP-Glo); assay type: biochemical
T1 construct: purchased Promega V9261
Protocol: EGFR-TK assay kit (ADP-Glo™ kinase assay, Cat No. V9261, Promega, United States) kinase assay was performed to evaluate the capacity of 3h, 3i, and 3j to inhibit EGFR.

[2] = system: apoptosis-related genes in A549 cells; test: Gene expression analysis by RT-PCR; assay type: cell-based, human; details: A549 treated at IC50; normalized to β-actin; 2^-ΔΔCT
[3] = system: HDFs (non-cancerous human dermal fibroblasts); test: MTT cytotoxicity assay, HDFs; assay type: cell-based; details: Homo sapiens, Fibroblast, non-cancerous cells, average ±SD of four independent experiments, read-out: IC50 ± STDEV, HDFs
Protocol: as §1, §2

[4] = system: A549 (non-small cell lung cancer) cells; test: MTT cytotoxicity assay, A549; assay type: cell-based, human; details: Homo sapiens, A549, average ±SD of four independent experiments, read-out: IC50 ± STDEV, A549
Protocol: as §1, §2

5-HT7R = biological target: 5-HT7R; design: method as in Kułaga et al., 2020; details: ref Kułaga et al., 2020; read-out: Ki, 5-HT7 receptors; cited from earlier work
CDK1 = system: CDK1; design: method as in Kumar et al., 2019; details: Figure 1; ref Kumar et al., 2019; read-out: CDK-inhibitor IC50, CDK1; cited from earlier work
CDK4 = system: CDK4; design: method as in Kumar et al., 2019; details: Figure 1; ref Kumar et al., 2019; read-out: CDK-inhibitor IC50, CDK4; cited from earlier work
CDK2-A = system: CDK2-A; design: method as in Kumar et al., 2019; details: Figure 1; ref Kumar et al., 2019; read-out: CDK-inhibitor IC50, CDK2-A; cited from earlier work
CDK6 = system: CDK6; design: method as in Kumar et al., 2019; details: Figure 1; ref Kumar et al., 2019; read-out: CDK-inhibitor IC50, CDK6; cited from earlier work

T1 sequence (P00533 25-1210): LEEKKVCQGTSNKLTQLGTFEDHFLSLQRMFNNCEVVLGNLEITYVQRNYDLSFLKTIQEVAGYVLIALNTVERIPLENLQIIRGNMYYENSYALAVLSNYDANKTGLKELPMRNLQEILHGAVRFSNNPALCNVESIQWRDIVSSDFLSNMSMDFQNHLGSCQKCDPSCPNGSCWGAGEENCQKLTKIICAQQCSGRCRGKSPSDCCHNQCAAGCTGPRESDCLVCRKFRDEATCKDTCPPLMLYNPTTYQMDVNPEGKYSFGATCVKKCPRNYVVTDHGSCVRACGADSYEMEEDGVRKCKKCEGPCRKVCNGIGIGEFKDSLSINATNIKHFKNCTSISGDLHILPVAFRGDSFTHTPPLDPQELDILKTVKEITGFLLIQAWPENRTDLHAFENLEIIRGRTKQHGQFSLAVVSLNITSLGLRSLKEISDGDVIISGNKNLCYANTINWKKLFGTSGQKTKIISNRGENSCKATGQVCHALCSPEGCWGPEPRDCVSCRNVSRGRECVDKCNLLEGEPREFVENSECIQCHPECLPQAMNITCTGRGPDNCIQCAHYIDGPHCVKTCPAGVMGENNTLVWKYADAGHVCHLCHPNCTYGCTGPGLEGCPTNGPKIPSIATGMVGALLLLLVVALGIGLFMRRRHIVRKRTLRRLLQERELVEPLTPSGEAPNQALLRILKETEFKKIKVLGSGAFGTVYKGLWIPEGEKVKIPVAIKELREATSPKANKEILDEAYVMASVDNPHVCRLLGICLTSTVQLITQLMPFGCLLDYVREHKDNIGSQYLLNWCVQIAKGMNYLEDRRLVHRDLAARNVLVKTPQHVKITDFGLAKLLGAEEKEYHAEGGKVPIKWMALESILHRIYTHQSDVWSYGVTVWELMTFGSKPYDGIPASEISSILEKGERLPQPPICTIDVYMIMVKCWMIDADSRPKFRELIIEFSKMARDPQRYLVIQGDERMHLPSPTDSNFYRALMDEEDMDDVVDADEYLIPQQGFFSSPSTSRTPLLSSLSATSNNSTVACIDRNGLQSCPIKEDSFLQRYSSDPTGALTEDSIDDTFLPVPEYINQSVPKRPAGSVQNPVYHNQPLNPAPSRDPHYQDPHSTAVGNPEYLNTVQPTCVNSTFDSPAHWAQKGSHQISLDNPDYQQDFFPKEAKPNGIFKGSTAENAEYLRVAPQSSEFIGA

Compound Nc1cc(-c2c[nH]c3ccccc23)nn1-c1nc(Nc2ccc(Cl)cc2)nc(N2CCOCC2)n1 [Compound 3i, 4-(5-Amino-3-(1H-indol-3-yl)-1H-pyrazol-1-yl)-N-(4-chlorophenyl)-6-morpholino-1,3,5-triazin-2-amine] has an IC50 [1] of 3.28 ± 0.16 µM, an IC50 (CDK-2; Mean ± SD of three independent replicates) of 108 ± 3.12 nM and an inhibition at 10 µM (CDK-2; at 10 µM) of 91.4%. The “cells undergoing late apoptosis” value (A549 cells; control 0.16%) was 19.5%, the “cells undergoing early apoptosis” value (A549 cells; control 0.42%) was 24.2% and the total apoptosis (A549 cells; control 0.61%) was 43.7%. The “total apoptotic cell death, fold vs control” value (A549 cells; control 0.61%) was 71.6 fold, the necrosis-mediated cell death (A549 cells; control 0.97%) was 4.08% and the “necrosis-mediated cell death, fold increase” value (A549 cells; control 0.97%) was 4.2 fold. The IC50 (EGFR; Mean ± SD of three independent replicates, read-out: EGFR inhibition IC50) was 34.1 ± 1.58 nM, the inhibition at 10 µM (EGFR; at 10 µM) was 93.6% and the “Bax gene expression, fold of change” value [2] was 3.56 fold. The “Bcl-2 gene expression, fold change” value [2] was 0.23 fold, the “P53 gene expression, fold of change” value [2] was 4.55 fold and the “caspase 3 gene expression, fold of change” value [2] was 6.96 fold. For the same compound, the “caspase 8 gene expression, fold of change” value [2] was 1.49 fold, the “caspase 9 gene expression, fold of change” value [2] was 7 fold and the IC50 [3] was 3.78 ± 0.55 µM. For the same compound, the IC50 [4] was 2400 ± 640 nM.
In the case of Nc1nc(NCCOc2ccccc2)nc(NCCc2c[nH]c3ccccc23)n1 [XIV], the Ki (5-HT7R) is given as < 60 nM.
In the case of OCCCNc1cncc(-c2ncnc(Nc3cccc(Cl)c3)n2)c1 [XVII], the IC50 (CDK1) is listed as 60 nM.
In the case of OCCCNc1cc(-c2ncnc(Nc3cccc(Cl)c3)n2)ccn1 [XVI], the IC50 (CDK4) is listed as 308 nM, the IC50 (CDK1) is listed as 21 nM and the IC50 (CDK2-A) is listed as 7 nM. The IC50 (CDK6) was 356 nM.
In the case of COc1nc(NCCc2c[nH]c3ccccc23)nc(Nc2ccc3[nH]ncc3c2)n1 [XV], the Ki (5-HT7R) is listed as < 60 nM.
